Results taken from article PMC10673615, “Quercetin-1,2,3-Triazole Hybrids as Multifunctional Anti-Alzheimer’s Agents” (Molecules, 2023).
Read-outs that look alike come from different tables or passages of the source.

Tests used:
Artemia salina = Artemia salina lethal toxicity assay; format: in vivo; details: Artemia salina nauplii; quality control
Protocol: Artemia salina was used for in vivo general toxicity assessment of the promising hybrids IVb, IVd, and IIf; the results are shown in Table 4 and Figure 7. K2Cr2O7 was used as a control. Hybrid IVd presented the lowest toxicity.
The ARTOXKIT M protocol was used. The percentage of dyed nauplii of Artemia salina, grown in the presence of variable concentrations of the inhibitor compounds, was measured to determine the LC50 values. A test with K2Cr2O7 was used for quality control.

eqBuChE = molecular target: T1, eqBuChE (Equus caballus, UniProt P81908); assay: Ellman cholinesterase inhibitory assay, eqBuChE (screening and IC50); format: biochemical; details: for inhibition at 100 µM: compound 100 µM, substrate 3 mM
T1 construct: equine serum butyrylcholinesterase (eqBuChE); purchased Sigma-Aldrich (lyophilized powder, 10.9 U/mg); host or cells: equine serum
Protocol: (§1) Firstly, the inhibitory activity of the quercetin-1,2,3-triazole hybrids I–IV was screened in vitro on eeAChE and eqBuChE at a concentration of 100 μM (these enzymes are considered as models of the human isoform). The ChE inhibitory activity of all compounds was evaluated using the method of Ellman.
(§2) The inhibitory activities of title compounds against commercially available cholinesterases (eeAChE) (Electrophorus electricus, Type V-S), eqBuChE (equine serum), were conducted using minor modifications of Ellman’s assay. Nine different concentrations ([…], 37.5, 75, 150, and 300 μM in H2O:DMSO (50:50)) of each test compound were used to determine the enzyme-inhibition activity. Briefly, 55 μL of 50 mM Tris-HCl buffer at pH 8, 25 μL of eqBuChE (0.03 U/mL), 20 μL of the test or standard compounds, and 125 μL of DTNB (0.8 mM) were incubated in 96-well plates at 37 °C for 15 min. Further, 25 μL of the substrate, BTCI (0.8 mM), was added, and the solution was incubated for additional 15 min. Finally, the absorbance was measured at 412 nm wavelength using a Microplate Spectrophotometry (TriStar® S LB 942 model instrument). The IC50 values were determined from the absorbance obtained for various concentrations of the test and the standard compounds. All determinations were performed in triplicate.
(§3) To determine the % of inhibition ([I] = 100 μM), the substrate concentration (acetylthiocholine iodide for AChE; S-butyrylthiocholine iodide for BuChE) was fixed at 3 mM.

eeAChE = molecular target: T2, eeAChE (Electrophorus electricus, UniProt O42275); assay: Ellman cholinesterase inhibitory assay, eeAChE screening; format: biochemical; details: compound 100 µM; substrate 3 mM
T2 construct: catalogue number not given
Protocol: as §1, §2, §3

MCF-7 cells = assay: Protective assay against hydrogen peroxide-induced oxidative stress in MCF-7 cells; format: cell-based, Human; details: 100 µM H2O2, 2 h
Protocol: Given the importance of oxidative stress-induced apoptosis of neuronal cells in AD, we present here a study to investigate the effect of quercetin-1,2,3-triazole hybrids on H2O2-induced oxidative damage in cultured MCF-7 cells, used as a human cell model. Viability was assessed with the WST-1 test in the absence and in the presence of an oxidative stressor (10^−4 M H2O2).
MCF-7 (Human breast adenocarcinoma (MERCK—# 86012803-DNA-5UG), Database Name: ECACC collection, Accession Numbers: 86012803) was the cell line elected as a cell injury model for the study of the potential protective effect of the butyrylcholinesterase inhibitors (hybrids) against hydrogen peroxide-induced oxidative stress. Cytotoxicity of the hybrids was also evaluated.
The culture medium was subsequently replaced with different final concentrations (6.25–50 μM) of the compounds to be tested. Negative controls were prepared, incubating cells in culture media.
Parallel experiments were performed for cytotoxicity assessment and for protective effect against hydrogen peroxide-induced oxidative stress evaluation. First, 10 μL of PBS was added in the designated wells; second, 10 μL of H2O2 (reaching a final concentration of 100 µM) was added. Following a 2 h incubation period at 37 °C in 5% CO2 atmosphere incubator, cellular viability was measured by adding WST-1 dehydrogenases substrate and incubating for 1 h, and the amount of formazan dye produced was evaluated by measuring the absorbance at 440 nm.

[1] = DPPH radical scavenging antioxidant assay; details: 100 μg/mL
Protocol: To assess the antioxidant activity of hybrids IVa–e, IIf and quercetin, the 2,2-diphenyl-1-[…] (DPPH) radical scavenging colorimetric method was used, which is one of the most widely used methods for determining antioxidant activity. In this method, antioxidants react with DPPH (which has a strong violet color) and convert it into yellow diphenylpicrylhydrazine. Compounds were assayed in the range of concentrations from 3 to 200 μg/mL. Ascorbic acid was used as positive control. […] Another piece of evidence is the similarity between the % inhibition values of hybrids IVa,b and IVd,e and quercetin.
The colorimetric DPPH assay was carried out as described in [33]. […] In brief, 30 μL of a test compound (in MeOH) was mixed with 200 μL of DPPH (100 μM in methanol) in a 96-well plate in triplicate. After 30 min incubation at room temperature in the absence of light, the absorbances were measured at 517 nm using Microplate Spectrophotometry (TriStar® S LB 942 model instrument). The free radical scavenging activity results are expressed as a percentage of DPPH inhibition according to the following formula:
% of Inhibition = 100[(A(Blank) − A(sample))/A(blank)], where A(blank) consists of methanol (30 μL) mixed with DPPH (200 μL) absorbance, and A(sample) is the absorbance value for the added sample concentration compound mixed with DPPH. Ascorbic acid was used as a positive control.

[2] = concentration range 1.2-300 µM, BTCI 0.8 mM, read-out: IC50 values for eqBuChE

T2 sequence (O42275 24-633): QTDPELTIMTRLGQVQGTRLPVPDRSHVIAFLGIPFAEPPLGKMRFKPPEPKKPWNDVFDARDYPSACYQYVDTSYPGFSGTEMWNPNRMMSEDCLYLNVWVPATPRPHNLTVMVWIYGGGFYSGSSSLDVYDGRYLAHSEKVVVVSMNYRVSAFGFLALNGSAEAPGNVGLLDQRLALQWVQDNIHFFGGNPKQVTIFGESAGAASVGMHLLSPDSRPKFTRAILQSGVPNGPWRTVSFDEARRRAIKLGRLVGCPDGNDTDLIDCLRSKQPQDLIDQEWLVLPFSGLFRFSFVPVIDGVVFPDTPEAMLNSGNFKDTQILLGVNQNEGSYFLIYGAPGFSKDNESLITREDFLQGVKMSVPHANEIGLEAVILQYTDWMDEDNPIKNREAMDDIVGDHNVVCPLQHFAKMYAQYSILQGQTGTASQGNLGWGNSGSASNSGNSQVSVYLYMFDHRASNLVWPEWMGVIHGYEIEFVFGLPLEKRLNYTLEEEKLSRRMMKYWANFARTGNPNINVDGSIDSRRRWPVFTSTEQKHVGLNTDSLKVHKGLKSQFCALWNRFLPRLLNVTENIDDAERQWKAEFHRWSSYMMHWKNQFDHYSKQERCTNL
T1 sequence (P81908 whole entry): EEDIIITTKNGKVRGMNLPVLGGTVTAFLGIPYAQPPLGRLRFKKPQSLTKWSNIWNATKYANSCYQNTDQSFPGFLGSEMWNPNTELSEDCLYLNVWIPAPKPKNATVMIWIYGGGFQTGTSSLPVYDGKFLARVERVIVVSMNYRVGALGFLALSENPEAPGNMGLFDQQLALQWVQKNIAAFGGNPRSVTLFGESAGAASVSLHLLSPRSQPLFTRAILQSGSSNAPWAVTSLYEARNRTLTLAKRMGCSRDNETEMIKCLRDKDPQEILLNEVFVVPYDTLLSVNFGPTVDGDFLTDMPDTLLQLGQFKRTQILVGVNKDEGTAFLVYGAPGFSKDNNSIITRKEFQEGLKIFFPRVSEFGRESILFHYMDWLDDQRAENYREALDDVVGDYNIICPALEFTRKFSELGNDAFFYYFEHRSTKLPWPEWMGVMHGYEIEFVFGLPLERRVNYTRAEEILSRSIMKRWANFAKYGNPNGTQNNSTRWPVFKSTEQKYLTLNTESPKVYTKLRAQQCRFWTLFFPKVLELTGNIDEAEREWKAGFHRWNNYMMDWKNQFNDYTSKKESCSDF

## [K+].[K+].[O]=[Cr](=[O])([O-])[O][Cr](=[O])(=[O])[O-] [Hybrid K2Cr2O7, K2Cr2O7, reference compound]
Artemia salina
  LC50: 22.7 µg/mL

## COc1cc(OC)c2c(=O)c(OCCCCn3cc(CO)nn3)c(-c3ccc(OC)c(OC)c3)oc2c1 [IIg, 2-(3,4-Dimethoxyphenyl)-3-(4-(4-(hydroxymethyl)-1H-1,2,3-triazol-1-yl)butoxy)-5,7-dimethoxy-4H-chromen-4-one]
eqBuChE
  inhibition at 100 µM: 53.8%
eqBuChE; [2]
  IC50: > 300 µM
eeAChE
  inhibition at 100 µM: 0%

## O=c1c(OCCCCn2cc(C3(O)CCCC3)nn2)c(-c2ccc(O)c(O)c2)oc2cc(O)cc(O)c12 [IVc, 2-(3,4-Dihydroxyphenyl)-5,7-dihydroxy-3-(4-(4-(1-hydroxycyclopentyl)-1H-1,2,3-triazol-1-yl)butoxy)-4H-chromen-4-one]
eqBuChE
  inhibition at 100 µM: 69.9%
eqBuChE; [2]
  IC50: 65.7 µM
eeAChE
  inhibition at 100 µM: 21.6%

## O=C1C(=O)N(Cc2cn(CCCCOc3c(-c4ccc(OCc5ccccc5)c(OCc5ccccc5)c4)oc4cc(OCc5ccccc5)cc(OCc5ccccc5)c4c3=O)nn2)c2ccccc21 [IIIf, 1-((1-(4-((5,7-Bis(benzyloxy)-2-(3,4-bis(benzyloxy)phenyl)-4-oxo-4H-chromen-3-yl)oxy)butyl)-1H-1,2,3-triazol-4-yl)methyl)indoline-2,3-dione]
eqBuChE
  inhibition at 100 µM: 34.5%
eeAChE
  inhibition at 100 µM: 0%

## COc1cc(OC)c2c(=O)c(OCCCCn3cc(C(C)(C)N)nn3)c(-c3ccc(OC)c(OC)c3)oc2c1 [IIi, 3-(4-(4-(2-Aminopropan-2-yl)-1H-1,2,3-triazol-1-yl)butoxy)-2-(3,4-dimethoxyphenyl)-5,7-dimethoxy-4H-chromen-4-one]
eqBuChE
  inhibition at 100 µM: 74.4%
eqBuChE; [2]
  IC50: 70.2 µM
eeAChE
  inhibition at 100 µM: 0%

## COc1cc(OC)c2c(=O)c(OCc3cn(Cc4ccccc4)nn3)c(-c3ccc(OC)c(OC)c3)oc2c1 [Ia, 3-((1-Benzyl-1H-1,2,3-triazol-4-yl)methoxy)-2-(3,4-dimethoxyphenyl)-5,7-dimethoxy-4H-chromen-4-one]
eqBuChE
  inhibition at 100 µM: 54.4%
eeAChE
  inhibition at 100 µM: 0%

## O=c1c(O)c(-c2ccc(O)c(O)c2)oc2cc(O)cc(O)c12 [Quercetin]
eqBuChE
  IC50: 18.2 µM
  inhibition at 100 µM: 100%
eeAChE
  inhibition at 100 µM: 8.18%
MCF-7 cells
  cellular antioxidant protection against H2O2: low capacity in cellular protection

## COc1cc(OC)c2c(=O)c(OCCCCn3cc(C(C)(C)O)nn3)c(-c3ccc(OC)c(OC)c3)oc2c1 [IId, 2-(3,4-Dimethoxyphenyl)-3-(4-(4-(2-hydroxypropan-2-yl)-1H-1,2,3-triazol-1-yl)butoxy)-5,7-dimethoxy-4H-chromen-4-one]
eqBuChE
  inhibition at 100 µM: 60.6%
eqBuChE; [2]
  IC50: > 300 µM
eeAChE
  inhibition at 100 µM: 0%

## COc1cc(OC)c2c(=O)c(OCCCCn3cc(C4(O)CCCC4)nn3)c(-c3ccc(OC)c(OC)c3)oc2c1 [IIc, 2-(3,4-Dimethoxyphenyl)-3-(4-(4-(1-hydroxycyclopentyl)-1H-1,2,3-triazol-1-yl)butoxy)-5,7-dimethoxy-4H-chromen-4-one]
eqBuChE
  inhibition at 100 µM: 69.6%
eqBuChE; [2]
  IC50: > 300 µM
eeAChE
  inhibition at 100 µM: 0%

## COc1cc(OC)c2c(=O)c(OCCCCn3cc(COc4cc(C)ccc4C(C)C)nn3)c(-c3ccc(OC)c(OC)c3)oc2c1 [IIe, 2-(3,4-Dimethoxyphenyl)-3-(4-(4-((2-isopropyl-5-methylphenoxy)methyl)-1H-1,2,3-triazol-1-yl)butoxy)-5,7-dimethoxy-4H-chromen-4-one]
eqBuChE
  inhibition at 100 µM: 81.7%
eqBuChE; [2]
  IC50: 26.6 µM
eeAChE
  inhibition at 100 µM: 4.13%

## Cc1ccc(C(C)C)c(OCc2cn(CCCCOc3c(-c4ccc(O)c(O)c4)oc4cc(O)cc(O)c4c3=O)nn2)c1 [IVe, 2-(3,4-Dihydroxyphenyl)-5,7-dihydroxy-3-(4-(4-((2-isopropyl-5-methylphenoxy)methyl)-1H-1,2,3-triazol-1-yl)butoxy)-4H-chromen-4-one]
[1]
  DPPH antioxidant activity: potent antioxidant activity
eqBuChE
  inhibition at 100 µM: 63.4%
eqBuChE; [2]
  IC50: > 150 µM
eeAChE
  inhibition at 100 µM: 29.1%

## CCCc1cn(CCCCOc2c(-c3ccc(OC)c(OC)c3)oc3cc(OC)cc(OC)c3c2=O)nn1 [IIh, 2-(3,4-Dimethoxyphenyl)-5,7-dimethoxy-3-(4-(4-propyl-1H-1,2,3-triazol-1-yl)butoxy)-4H-chromen-4-one]
eqBuChE
  inhibition at 100 µM: 7.97%
eqBuChE; [2]
  IC50: > 300 µM
eeAChE
  inhibition at 100 µM: 38.6%

## O=c1c(OCCCCn2cc(C3(O)CCCC3)nn2)c(-c2ccc(OCc3ccccc3)c(OCc3ccccc3)c2)oc2cc(OCc3ccccc3)cc(OCc3ccccc3)c12 [IIIc, 5,7-Bis(benzyloxy)-2-(3,4-bis(benzyloxy)phenyl)-3-(4-(4-(1-hydroxycyclopentyl)-1H-1,2,3-triazol-1-yl)butoxy)-4H-chromen-4-one]
eqBuChE
  inhibition at 100 µM: 26.9%
eeAChE
  inhibition at 100 µM: 17.2%

## CC(C)(O)c1cn(CCCCOc2c(-c3ccc(OCc4ccccc4)c(OCc4ccccc4)c3)oc3cc(OCc4ccccc4)cc(OCc4ccccc4)c3c2=O)nn1 [IIId, 5,7-Bis(benzyloxy)-2-(3,4-bis(benzyloxy)phenyl)-3-(4-(4-(2-hydroxypropan-2-yl)-1H-1,2,3-triazol-1-yl)butoxy)-4H-chromen-4-one]
eqBuChE
  inhibition at 100 µM: 27.3%
eeAChE
  inhibition at 100 µM: 15.1%

## COc1cc(OC)c2c(=O)c(OCCCCn3cc(-c4ccccc4)nn3)c(-c3ccc(OC)c(OC)c3)oc2c1 [IIa, 2-(3,4-Dimethoxyphenyl)-5,7-dimethoxy-3-(4-(4-phenyl-1H-1,2,3-triazol-1-yl)butoxy)-4H-chromen-4-one]
eqBuChE
  inhibition at 100 µM: 55.3%
eqBuChE; [2]
  IC50: > 300 µM
eeAChE
  inhibition at 100 µM: 7.75%

## COc1cc(OC)c2c(=O)c(OCc3cn(Cc4cccc(Cl)c4)nn3)c(-c3ccc(OC)c(OC)c3)oc2c1 [Ib, 3-((1-(3-Chlorobenzyl)-1H-1,2,3-triazol-4-yl)methoxy)-2-(3,4-dimethoxyphenyl)-5,7-dimethoxy-4H-chromen-4-one]
eqBuChE
  inhibition at 100 µM: 63.3%
eeAChE
  inhibition at 100 µM: 0%

## O=c1c(OCCCCn2cc(-c3ccccc3)nn2)c(-c2ccc(OCc3ccccc3)c(OCc3ccccc3)c2)oc2cc(OCc3ccccc3)cc(OCc3ccccc3)c12 [IIIa, 5,7-Bis(benzyloxy)-2-(3,4-bis(benzyloxy)phenyl)-3-(4-(4-phenyl-1H-1,2,3-triazol-1-yl)butoxy)-4H-chromen-4-one]
eqBuChE
  inhibition at 100 µM: 46.9%
eeAChE
  inhibition at 100 µM: 40.6%

## COc1cc(OC)c2c(=O)c(OCCCCn3cc(C4CC4)nn3)c(-c3ccc(OC)c(OC)c3)oc2c1 [IIb, 2-(3,4-Dimethoxyphenyl)-3-(4-(4-cyclopropyl-1H-1,2,3-triazol-1-yl)butoxy)-5,7-dimethoxy-4H-chromen-4-one]
eqBuChE
  inhibition at 100 µM: 54.4%
eqBuChE; [2]
  IC50: > 300 µM
eeAChE
  inhibition at 100 µM: 0%
